Assay results as given in patent US9000027B2, “Chk1 suppresses a caspase-2 apoptotic response to DNA damage that bypasses p53, bcl-2 and caspase-3” (Dana-Farber Cancer Institute, Inc., priority 2008, dated 2015).

Columns and labels:
ATM = test: Western blot of ATM activity (Chk2 phosphorylation at Thr68) in HeLa cells; type: cell-based, human; conditions: 10 Gy IR+Gö6976 1 μM
Experimental: (§1) Protein extract (5-60 μg) was added to 4× gel loading buffer and 10× denaturing solution (Invitrogen) in appropriate proportions, and samples were incubated at 70° C. for 10 min. Samples were run at 200V for 1 hr on a 4-12% Bis-tris gradient gel (Invitrogen). After electrophoresis, samples were transferred for 1.5 hr (350 mA) to a Nitrocellulose membrane (Millipore) using a submerged transfer apparatus (Bio-Rad). Membranes were then blocked with 5% milk in Tris-buffered saline with 0.1% tween (TBST) and probed overnight at 4° C. with the following antibodies: anti-zebrafish Chk1 (diluted 1:200), anti-zebrafish Chk2 (1:200), anti-P-Cdc2 (1:1000), anti-actin (1:2000), anti-human ATR (1:500) and Stressgen anti-human-caspase-3 (1:500) for zebrafish immunoblots; and anti-caspase-2 (1:200), Upstate anti-caspase-3 (1:500), anti-P-ATM (1:500), anti-ATM (1:500), Santa Cruz anti-human Chk1 (1:1000), Santa Cruz anti-human Chk2 (1:1000), anti-P-Chk1 (1:500), anti-P-Chk2 (1:500), anti-P-H2A.X (1:2000), anti-P-cdc25C (1:1000), anti-P-HSP27 (1:1000), anti-HSP27 (1:1000), anti-P-Cdc2 (1:1000), anti-p53 (1:1000) and anti-GAPDH (1:5000) for immunoblots of human tumor cell lysates. Detailed references for all primary antibodies can be found in the ‘Antibodies’ section elsewhere herein.

MK-2 = MK-2 (Homo sapiens, UniProt P49137); test: Western blot of MK-2 activity (Hsp-27 Ser82 phosphorylation) in irradiated HeLa cells; type: cell-based; design: endogenous in cells; host or cells: HeLa
MK-2, sequence (P49137 whole entry): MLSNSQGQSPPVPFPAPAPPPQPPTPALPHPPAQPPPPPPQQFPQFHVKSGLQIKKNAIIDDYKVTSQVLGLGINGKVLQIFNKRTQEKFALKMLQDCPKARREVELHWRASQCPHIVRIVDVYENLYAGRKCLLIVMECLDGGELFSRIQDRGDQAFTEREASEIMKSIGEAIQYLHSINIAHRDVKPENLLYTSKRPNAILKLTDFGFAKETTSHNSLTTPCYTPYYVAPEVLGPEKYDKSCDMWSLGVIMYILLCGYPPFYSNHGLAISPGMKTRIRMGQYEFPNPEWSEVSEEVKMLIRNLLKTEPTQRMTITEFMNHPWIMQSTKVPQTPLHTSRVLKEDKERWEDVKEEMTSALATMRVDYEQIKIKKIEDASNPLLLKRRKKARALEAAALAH
Experimental: as §1

caspase-3 = test: Western blot of cleaved caspase-3 in HeLa cells; type: cell-based, human; conditions: 10 Gy, 24 hpIR, Gö6976 1 μM
Experimental: as §1

HeLa cells = test: Clonogenic survival assay after IR; type: cell-based, human; conditions: Gö6976 500 nM from 24 hbIR
Experimental: Clonogenic assays were performed as described (Franken et al., 2006). Briefly, the cells were plated in 6-cm dishes, treated with Gö6976 followed by IR and cultured for 2 weeks. The medium was then removed, and the cells were rinsed by PBS and incubated with a mixture of 6.0% glutaraldehyde and 0.5% crystal violet (Sigma-Aldrich, St Louis, Mo., USA) for 30 min at room temperature. The dishes were washed with water, and colonies consisting of at least 50 cells were counted.

p53^e7/e7 mutant embryos = test: Morpholino screen for suppressors of p53^e7/e7 radioresistance (live AO assay); type: in vivo, zebrafish; conditions: p53^e7/e7, 12.5 Gy at 18 hpf, 7.5 hpIR
Experimental: We used morpholino antisense oligonucleotides (MOs) to knock down the expression levels of 8 zebrafish S- and G2-checkpoint kinases in p53^e7/e7 mutant embryos and assessed the ability of each knockdown to restore cell death (AO reactivity) at 7.5 hours post-IR (hpIR). We also tested several double-knockdown combinations, as well as knockdowns of non-kinase checkpoint regulators (p21^waf1/cip1 and smc1). For each knockdown, we scored a minimum of 50 embryos and quantified AO staining in at least 5 embryos. To avoid the isolation of false-positives, we adjusted the concentrations of each MO to the maximal dose compatible with normal embryonic development in the p53^e7/e7 background.
Morpholino oligonucleotides (MOs) synthesized by Gene Tools™ LLC, were resuspended in sterile water at a concentration of 1 mM and delivered into zebrafish embryos at the one-cell stage by microinjection. […] For each previously unpublished MO, the working concentration was determined as the highest dose compatible with normal zebrafish development in the p53^e7/e7 background (maximal subtoxic concentration). […]
Live zebrafish embryos were dechorionated in pronase (2.0 mg/mL in egg water) for 3 to 5 min and rinsed five times in egg water at 18 hpf. […] Lateral images of each zebrafish were acquired on a Zeiss Axioplan2 fluorescence microscope (5× lens), using OpenLab software and a Hammamatsu C4742-95 digital camera. […]

Molecule | phosphorylated Chk2 at Thr68 (readout for ATM activity) (ATM) | MK-2 activity (MK-2; Gö6976 1 μM) | HSP-27 phosphorylation at serine 82 (MK-2 site) (MK-2; Gö6976, increasing concentrations, 10 Gy, 24 hpIR) | levels of cleaved caspase-3 (caspase-3) | clonogenic radiosensitization (HeLa cells; 2 Gy) | reduction in number of colonies (HeLa cells; 3.2 Gy, colonies counted 14 dpIR) [%] | AO reactivity restored, of the p53+/+ response (p53^e7/e7 mutant embryos) [%]
Cn1c2ccccc2c2c3c(c4c5ccccc5n(CCC#N)c4c21)CNC3=O [Gö6976] | synergistic increases | an increase in MK-2 activity | did not block HSP-27 phosphorylation at serine 82 | negligible | inability of Gö6976 to significantly radiosensitize the cells | 50 | 
chk1 MO: morpholino against zebrafish chk1 atg/5'UTR, aggcacagccattatgcaatcttcg (SEQ ID NO: 11) (AGGCACAGCCATTATGCAATCTTCG; all phosphorodiamidate morpholino (PMO)) |  |  |  |  |  |  | 87.7
